The text below walks through data of ChEMBL document CHEMBL4011661, “The Fragment Network: A Chemistry Recommendation Engine Built Using a Graph Database” (J Med Chem, 2017).

pIC50: −log10 of the molar value.

Assay [1] is described as follows: Inhibition of 5-FAM peptide binding to Hepatitis C virus full length NS3/4A helicase after 30 mins by FRET assay. More on the design: species or system Hepacivirus hominis.
Assay [2] deals with RAC-beta serine/threonine-protein kinase (Homo sapiens, UniProt P31751). The assay can be described thus: Inhibition of PKBbeta (unknown origin) in presence of [33P-gamma]ATP by scintillation counting.
Chain of RAC-beta serine/threonine-protein kinase (P31751 whole entry): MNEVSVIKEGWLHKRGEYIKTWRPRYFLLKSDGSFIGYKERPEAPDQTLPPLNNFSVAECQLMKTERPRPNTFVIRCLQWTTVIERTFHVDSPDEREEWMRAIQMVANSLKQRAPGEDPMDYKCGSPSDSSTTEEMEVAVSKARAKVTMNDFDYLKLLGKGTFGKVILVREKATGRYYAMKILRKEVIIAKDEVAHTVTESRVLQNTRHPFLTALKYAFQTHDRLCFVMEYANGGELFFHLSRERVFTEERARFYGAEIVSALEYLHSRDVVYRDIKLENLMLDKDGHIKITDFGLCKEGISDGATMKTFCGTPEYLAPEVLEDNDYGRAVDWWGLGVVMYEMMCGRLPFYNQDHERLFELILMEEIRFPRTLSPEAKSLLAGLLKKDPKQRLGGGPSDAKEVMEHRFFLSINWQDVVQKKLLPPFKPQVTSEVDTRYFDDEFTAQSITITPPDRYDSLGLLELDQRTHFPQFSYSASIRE

For the molecule `NCc1cccc(Oc2ccccc2)c1`, the pIC50 in assay [1] was 3.89.

In the case of `NCc1ccc(Oc2ccccc2)c(Cl)c1`, the pIC50 in assay [1] is 4.39.

In turn, `NCc1ccc(Oc2ccccc2)cc1` gave a pIC50 in assay [1] of 3.30.

As for `Cc1n[nH]c(C)c1-c1ccccc1`, the pIC50 in assay [2] is 4.14.

As for `Cc1n[nH]c(N)c1-c1ccccc1`, the pIC50 in assay [2] is 3.18.

`NCc1ccc(C(=O)c2ccccc2)cc1` gave a pIC50 in assay [1] of 3.74.

As to `NCc1ccc(F)c(Oc2ccccc2)c1F`, the pIC50 in assay [1] was 4.70.

`NCc1cc(F)c(Oc2ccccc2)c(F)c1` had a pIC50 in assay [1] of 4.47.
